Experimental data published in patent US9937115B2, “Oral care compositions with improved flavor” (priority 2010, dated 2018).
Where a name gives a salt, the structure may show the parent alone. Read-outs that look alike come from different tables or passages of the source.

Columns and labels:
TRPA1 receptor [1] = target: T1, TRPA1 receptor (Homo sapiens, UniProt O75762); assay: cell-based; parameters: activation: dose or concentration left out as unconfirmed; conditions: for activation at 100 µM / activation: HEK293; for activation at 100 µM: read-out: TRPA1 Direct addition; for activation: pre-incubation, read-out: TRPA1 Pre-incubation;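 for TRPA1 Pre-incubation: values above 100 mean more active than the control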
T1 construct: expressed in transfected cells; host or cells: HEK cell line
Procedure: The term “TRPA1 activator” as used herein refers to any component which at a concentration of 1 mM gives a calcium flux count of at least 1000 counts above the background level of calcium present in the cell according to the FLIPR method as discussed herein. The term “count” is defined as the change in fluorescence of the transfected cell lines due to the influx of calcium across the cell membrane, which reacts with the calcium sensitive dye present within the cells.
In order to select TRPA1 agonists that would be preferred for reducing off-tasting chemical components found in oral care compositions, calcium flux receptor activity on the TRPA1 was utilized as the criteria for selection of actives. With allyl isothiocyanate as the TRPA1 positive control, molecules that directly activated the TRPA1 receptor were screened in dimethylsulfoxide (DMSO). Pure molecules of each material were dissolved in DMSO at a concentration of 100 micormolar and then added to an HEK cell line containing the TRPA1 receptor. If they are TRPA1 agonists, they will cause a calcium flux in the cell which fluoresces and may then be measured using a FLIPR machine.

TRPA1 receptor [2] = target: T1, TRPA1 receptor; format: cell-based; conditions: percentage of the control (allyl isothiocyanate) calcium count, material dissolved in DMSO at 100 micromolar, HEK cells with TRPA1
[3] = percentage of the control (allyl isothiocyanate) calcium count, material dissolved in DMSO at 100 micromolar, HEK cells with TRPA1, direct addition
[4] = percentage of the control (allyl isothiocyanate) calcium count, material dissolved in DMSO at 100 micromolar, HEK cells with TRPA1

T1 sequence (O75762 whole entry): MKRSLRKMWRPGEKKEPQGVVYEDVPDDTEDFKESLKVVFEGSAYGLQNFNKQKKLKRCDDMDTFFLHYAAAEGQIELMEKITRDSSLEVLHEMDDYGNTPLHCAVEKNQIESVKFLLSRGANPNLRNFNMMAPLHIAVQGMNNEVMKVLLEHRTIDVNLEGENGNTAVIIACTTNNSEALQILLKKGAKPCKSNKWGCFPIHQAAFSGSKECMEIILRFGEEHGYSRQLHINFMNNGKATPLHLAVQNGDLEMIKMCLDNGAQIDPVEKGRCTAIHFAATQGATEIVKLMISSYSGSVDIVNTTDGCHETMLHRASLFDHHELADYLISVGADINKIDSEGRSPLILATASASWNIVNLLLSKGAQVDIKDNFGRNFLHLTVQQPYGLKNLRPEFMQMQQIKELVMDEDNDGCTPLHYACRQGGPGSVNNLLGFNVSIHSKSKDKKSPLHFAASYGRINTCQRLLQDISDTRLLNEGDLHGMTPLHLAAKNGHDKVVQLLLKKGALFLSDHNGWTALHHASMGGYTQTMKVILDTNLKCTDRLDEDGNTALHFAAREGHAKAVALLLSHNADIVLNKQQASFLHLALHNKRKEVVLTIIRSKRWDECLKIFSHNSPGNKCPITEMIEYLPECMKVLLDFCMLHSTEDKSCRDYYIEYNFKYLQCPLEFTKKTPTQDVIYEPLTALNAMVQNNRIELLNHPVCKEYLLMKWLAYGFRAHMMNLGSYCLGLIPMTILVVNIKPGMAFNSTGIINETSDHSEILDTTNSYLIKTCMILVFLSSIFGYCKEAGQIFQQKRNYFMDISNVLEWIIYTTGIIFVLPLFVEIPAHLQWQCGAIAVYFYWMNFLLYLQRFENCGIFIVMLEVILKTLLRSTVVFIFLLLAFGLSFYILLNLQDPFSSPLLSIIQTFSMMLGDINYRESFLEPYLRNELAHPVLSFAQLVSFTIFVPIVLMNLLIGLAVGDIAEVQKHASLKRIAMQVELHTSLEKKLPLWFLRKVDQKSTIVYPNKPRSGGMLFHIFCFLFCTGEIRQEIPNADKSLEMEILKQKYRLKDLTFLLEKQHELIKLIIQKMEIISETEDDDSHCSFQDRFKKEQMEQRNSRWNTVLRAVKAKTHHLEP

| Compound | activation at 100 µM (TRPA1 receptor [1]; [3]) | activation (TRPA1 receptor [1]; [4]) | further results |
| --- | --- | --- | --- |
| 2-phenyl propyl tetrahydrofuran |  |  | TRPA1 Direct addition (TRPA1 receptor [1]; [3]): −0.15%; TRPA1 Pre-incubation (TRPA1 receptor [2]): 108.49% |
| 4-Ethylguaiacol |  |  | TRPA1 Direct addition (TRPA1 receptor [1]; [3]): 55.61%; TRPA1 Pre-incubation (TRPA1 receptor [2]): 53.53% |
| C=CC(C)(O)CCC=C(C)CC (mixture of isomers) [Ethyl Linalool] |  |  | TRPA1 Direct addition (TRPA1 receptor [1]; [3]): −0.1%; TRPA1 Pre-incubation (TRPA1 receptor [2]): 63.35% |
| CC(=O)O[C@@H]1C[C@H](C)CC[C@H]1C(C)C (racemic) [DL-Menthyl Acetate] |  |  | TRPA1 Direct addition (TRPA1 receptor [1]; [3]): −16.09%; TRPA1 Pre-incubation (TRPA1 receptor [2]): 43.32% |
| CC(C)=CC1CC(C)CCO1 (racemic) [Rose Oxide Racemic] |  |  | TRPA1 Direct addition (TRPA1 receptor [1]; [3]): −6.68%; TRPA1 Pre-incubation (TRPA1 receptor [2]): 80.14% |
| COc1ccc(CC(C)=O)cc1 [1-(P-Methoxyphenyl)-2-Propanone] |  |  | TRPA1 Direct addition (TRPA1 receptor [1]; [3]): 0.49%; TRPA1 Pre-incubation (TRPA1 receptor [2]): 77.63% |
| CC(=O)c1nccs1 [2-Aceylthiazole] |  |  | TRPA1 Direct addition (TRPA1 receptor [1]; [3]): −1.29%; TRPA1 Pre-incubation (TRPA1 receptor [2]): 57.82% |
| O=S(=O)([O-])NC1CCCCC1.[Na+] [Sodium Cyclamate] |  |  | TRPA1 Direct addition (TRPA1 receptor [1]): −4.07%; TRPA1 Pre-incubation (TRPA1 receptor [1]): 48.66% |
| CC1=CCC(=C(C)C)CC1 [Terpinolene] | -17.2% | 76.2% |  |
| CC/C=C/C=C/C=O [Trans,trans-2,4-Heptadienal] | 119% | -3.68% |  |
| CCC/C=C/COC(C)=O [Trans-2-Hexenyl Acetate] | -0.32% | 68.7% |  |
| CCCCCC/C=C/CO [Trans-2-Nonen-1-ol] | -0.49% | 115% |  |
| CCCCCC/C=C/C=O [Trans-2-Nonenal] | 123% | 23.3% |  |
| COc1cc(/C=C/C(=O)O)ccc1O [Trans-Ferulic Acid] | -2.53% | 85.6% |  |
| CC(=O)OCC(COC(C)=O)OC(C)=O [Triacetin] | -17.1% | 79.3% |  |
| CCOC(=O)CC(O)(CC(=O)OCC)C(=O)OCC [Triethyl Citrate] | -9.43% | 82.2% |  |
| CCCCCCCCCCC(=O)O [Undecanoic Acid] | -14.6% | 24.7% |  |

| Compound | activation at 100 µM (TRPA1 receptor [1]; [3]) | activation (TRPA1 receptor [1]; [4]) | further results |
| --- | --- | --- | --- |
| CC(=O)[O-].CC(=O)[O-].[Zn+2] [Zinc Acetate] |  |  | TRPA1 Direct addition (TRPA1 receptor [1]): −0.66%; TRPA1 Pre-incubation (TRPA1 receptor [1]): 21.67% |
| O=C([O-])C(=O)[O-].[Zn+2] [Zinc Oxalate] |  |  | TRPA1 Direct addition (TRPA1 receptor [1]): 40.18%; TRPA1 Pre-incubation (TRPA1 receptor [1]): 18.11% |
| [O]=[Zn] [Zinc Oxide] |  |  | TRPA1 Direct addition (TRPA1 receptor [1]): −3.73%; TRPA1 Pre-incubation (TRPA1 receptor [1]): 71.09% |
| O=S(=O)([O-])[O-].[Zn+2] [Zinc Sulfate] |  |  | TRPA1 Direct addition (TRPA1 receptor [1]): 29.79%; TRPA1 Pre-incubation (TRPA1 receptor [1]): 21.7% |
| CCCCCC/C=C\CO [cis-2-nonen-1-ol] | -1.09% | 79.2% |  |
| CC/C=C\CCOC(=O)CCC [cis-3-Hexenyl Butyrate] | -0.46% | 87.9% |  |
| CC/C=C\CCOC(=O)CCCCC [cis-3-Hexenyl Hexanoate] | 0.08% | 106% |  |
| CC/C=C\CCOC(=O)C/C=C\CC [cis-3-Hexenyl cis-3-Hexenoate, [(Z)-hex-3-enyl] (Z)-hex-3-enoate] | -1.04% | 122% |  |
| CC/C=C\CCCCCO [cis-6-Nonen-1-ol] | 2.38% | 98% |  |
| CC/C=C\CCCCC=O [cis-6-Nonenal] | 2.76% | 74.7% |  |
| CCCOC(=O)c1ccc(O)cc1 [n-Propyl-4-hydroxybenzoate] | 173% | 8.13% |  |
| COc1cc(C)ccc1C(C)C [thymyl methyl ether] | -0.16% | 108% |  |
| CCCCCC/C=C/C=C/C=O [trans,trans-2,4-Undecadienal] | 122% | -3.93% |  |
| CCCC/C=C/C=O [trans-2-Heptenal] | 95.9% | -3.74% |  |
| CCC/C=C/C=O [trans-2-Hexenal] | 1.62% | 103% |  |
| Methyl Ionone |  |  | TRPA1 Direct addition (TRPA1 receptor [1]): 38.43%; TRPA1 Pre-incubation (TRPA1 receptor [1]): −1.32% |
